# Assay results published in patent US20110224231A1, “Novel Lactams as Beta Secretase Inhibitors” (Pfizer Inc., priority 2008, published 2011).
# Target: T1, soluble human BACE (Homo sapiens, UniProt P56817)
# T1 construct: cells secreting human recombinant soluble BACE; made in house; conditioned medium
# Test: BACE activity Cell Free Assay (ELISA of cleaved synthetic APP substrate)
# Format: biochemical
# Experimental: A synthetic APP substrate that can be cleaved by beta˜secretase and having N-terminal biotin is used to assay beta-secretase activity in the presence or absence of the inhibitory compounds. […] The substrate and test compounds are added to 384 well polypropylene plates. The reaction is initiated by the addition of soluble BACE enzyme to a final volume of 12.5 μL per well. The final assay conditions are: 0.001˜300 μM compound inhibitor, 0.05M sodium acetate (pH 4.5), 3 μM substrate, soluble human BACE, and 2% DMSO. Concentrated conditioned media from cells secreting human recombinant soluble BACE was titrated to provide a source of BACE enzyme. The cell media can be used as either a crude BACE prep or BACE can be purified using any number of techniques, including immobilized BACE inhibitor purification columns. The assay mixture is incubated for 1 hour at 37° C., and the reaction is quenched by the addition of an equal volume of 0.1M Tris, pH 8. Half of the quenched mix is incubated on clear streptavidin coated 384 well polystyrene plates for 1 hour. An ELISA is then performed using an in˜house antibody that specifically recognizes the new C˜terminus created after cleavage by BACE. […] (These polyclonal antibodies were raised in rabbits by immunizing with antigen comprised of six amino acid residues present at the carboxy terminus of the wild-type soluble APPbeta sequence (NH2-ISEVKM-COOH) or seven amino acid residues present at the carboxy terminus of the Swedish mutation at the beta cleavage site (NH2-EISEVNL˜COOH) conjugated to keyhole limpet hemacyanin by methods known to those skilled in the art.) A secondary anti˜species Horseradish Peroxidase (HRP) conjugated antibody is then utilized. The readout, following assay development with TMB substrate and quenching with 0.09M sulfuric acid, is absorbance at 450 nm.
# T1 sequence (P56817 46-457 limits assumed): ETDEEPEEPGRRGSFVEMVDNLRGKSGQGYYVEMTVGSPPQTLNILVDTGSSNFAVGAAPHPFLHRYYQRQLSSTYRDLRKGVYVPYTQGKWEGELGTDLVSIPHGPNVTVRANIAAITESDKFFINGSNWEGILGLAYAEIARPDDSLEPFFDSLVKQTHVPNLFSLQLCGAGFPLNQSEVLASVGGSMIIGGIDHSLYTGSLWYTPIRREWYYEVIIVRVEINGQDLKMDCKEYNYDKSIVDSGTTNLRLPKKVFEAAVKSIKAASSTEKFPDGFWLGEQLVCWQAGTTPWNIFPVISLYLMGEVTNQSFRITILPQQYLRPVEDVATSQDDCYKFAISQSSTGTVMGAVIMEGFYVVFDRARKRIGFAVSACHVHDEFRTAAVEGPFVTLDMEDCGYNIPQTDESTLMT
row,Compound,IC50
1,"CC1CC2(C=CC(=O)N2c2cccc(F)c2)CCN1Cc1c[nH]c2ccc(OCc3ccccc3)cc12 (racemic) [Example 62, Racemic (5R,7S),(5S,7R)-8-{[5-(benzyloxy)-1H-indol-3-yl]methyl}-1-(3-fluorophenyl)-7-methyl-1,8-diazaspiro[4.5]dec-3-en-2-one]",10 to 100 µM
2,"CC1CC2(C=CC(=O)N2c2cccc(F)c2)CCN1Cc1c[nH]c2cc(F)ccc12 (racemic) [Example 63, Racemic (5R,7S),(5S,7R)-8-[(6-fluoro-1H-indol-3-yl)methyl]-1-(3-fluorophenyl)-7-methyl-1,8-diazaspiro[4.5]dec-3-en-2-one]",10 to 100 µM
3,"CC1CC2(C=CC(=O)N2c2cccc(F)c2)CCN1Cc1cccc(-n2cccn2)c1 (racemic) [Example 64, Racemic (5R,7S),(5S,7R)-1-(3-fluorophenyl)-7-methyl-8-[3-(1H-pyrazol-1-yl)benzyl]-1,8-diazaspiro[4.5]dec-3-en-2-one]",10 to 100 µM
4,"CC1CC2(C=CC(=O)N2c2cccc(F)c2)CCN1Cc1n[nH]c2ccc(Cl)cc12 (racemic) [Example 65, Racemic (5R,7S),(5S,7R)-8-[(5-chloro-1H-indazol-3-yl)methyl]-1-(3-fluorophenyl)-7-methyl-1,8-diazaspiro[4.5]dec-3-en-2-one]",10 to 100 µM
5,"Cc1ccc2c(CN3CCC4(C=CC(=O)N4c4cccc(F)c4)CC3C)c[nH]c2c1 (racemic) [Example 66, Racemic (5R,7S),(5S,7R)-1-(3-fluorophenyl)-7-methyl-8-[(6-methyl-1H-indol-3-yl)methyl]-1,8-diazaspiro[4.5]dec-3-en-2-one]",10 to 100 µM
6,"CC1CC2(C=CC(=O)N2c2cccc(F)c2)CCN1Cc1c[nH]c2cc(C(F)(F)F)ccc12 (racemic) [Example 67, Racemic (5R,7S),(5S,7R)-1-(3-fluorophenyl)-7-methyl-8-{[6-(trifluoromethyl)-1H-indol-3-yl]methyl}-1,8-diazaspiro [4.5]dec-3-en-2-one]",10 to 100 µM
7,"CC1CC2(C=CC(=O)N2c2cccc(F)c2)CCN1Cc1cccc(OCc2nc(C3CC3)no2)c1 (racemic) [Example 68, Racemic (5R,7S),(5S,7R)-8-{3-[(3-cyclopropyl-1,2,4-oxadiazol-5-yl)methoxy]benzyl}-1-(3-fluorophenyl)-7-methyl-1,8-diazaspiro[4.5]dec-3-en-2-one]",10 to 100 µM
8,"CC(=O)Nc1ccc(CN2CCC3(CCC(=O)N3c3cccc(F)c3)CC2C)cc1 (racemic) [Example 69, Racemic N-(4-{[(5R,7S),(5S,7R)-1-(3-fluorophenyl)-7-methyl-2-oxo-1,8-diazaspiro[4.5]dec-8-yl]methyl}phenyl)acetamide]",10 to 100 µM
9,"CC1CC2(CCC(=O)N2c2cccc(F)c2)CCN1Cc1c[nH]c2ccc(Cl)cc12 (racemic) [Example 70, Racemic (5R,7S),(5S,7R)-8-[(5-chloro-1H-indol-3-yl)methyl]-1-(3-fluorophenyl)-7-methyl-1,8-diazaspiro[4.5]decan-2-one]",10 to 100 µM
10,"CC1CC2(C=CC(=O)N2c2cccc(F)c2)CCN1Cc1nc(-c2cccc(Cl)c2)cs1 (racemic) [Example 71, Racemic (5R,7S),(5S,7R)-8-{[4-(3-chlorophenyl)-1,3-thiazol-2-yl]methyl}-1-(3-fluorophenyl)-7-methyl-1,8-diazaspiro[4.5]dec-3-en-2-one]",10 to 100 µM
11,"COc1cccc(-c2csc(CN3CCC4(C=CC(=O)N4c4cccc(F)c4)CC3C)n2)c1 (racemic) [Example 72, Racemic (5R,7S),(5S,7R)-1-(3-fluorophenyl)-8-{[4-(3-methoxyphenyl)-1,3-thiazol-2-yl]methyl}-7-methyl-1,8-diazaspiro[4.5]dec-3-en-2-one]",10 to 100 µM
12,"COc1ccc(-c2csc(CN3CCC4(C=CC(=O)N4c4cccc(F)c4)CC3C)n2)cc1 (racemic) [Example 73, Racemic (5R,7S),(5S,7R)-1-(3-fluorophenyl)-8-{[4-(4-methoxyphenyl)-1,3-thiazol-2-yl]methyl}-7-methyl-1,8-diazaspiro[4.5]dec-3-en-2-one]",10 to 100 µM
